Our source for the IC50 values is patent US9580418B2, “Bicyclic aromatic carboxamide compounds useful as Pim kinase inhibitors” (Incyte Corporation, priority 2014, dated 2017).

Some results are limits rather than exact numbers.

One test addresses Pim-2 (Homo sapiens (Human), UniProt Q9P1W9). As to the kind of experiment: Pim-2 kinase assay (Pim enzyme assays, Example A). The note with it: 1 mM ATP, CREBtide peptide substrate; read-out: PIM2 IC50. It is filed as biochemical. On the procedure: Pim-2 kinase assay-20 μL reactions were run in white 384 well polystyrene plates dotted with 0.8 μL compound/DMSO in the assay buffer (50 mM Tris, pH 7.5, 0.01% Tween-20, 5 mM mgCl2, 0.01% BSA, 5 mM DTT), containing 0.05 μM Fluorescein-labeled CREBtide peptide substrate (Invitrogen PV3508), 1 mM ATP, and 1 nM enzyme (Invitrogen PV3649) for 2 h at 25° C. Reactions were stopped by addition of 10 μL TR-FRET Dilution Buffer (Invitrogen PV3574) with 30 mM EDTA and 1.5 nM LanthaScreen Tb-CREB pSer133 antibody (Invitrogen PV3566). After 30 min. incubation at room temperature, plates were read on a PHERAstar FS plate reader (BMG Labtech).

A further test addresses Pim-3 (Homo sapiens (Human), UniProt Q86V86). As to the kind of experiment: Pim-3 kinase assay (Pim enzyme assays, Example A). It is filed as biochemical. The settings on record: 1 mM ATP, BAD peptide substrate; read-out: PIM3 IC50. How it is done:
(§1) Pim-1 and Pim-3 kinase assays-20 μL reactions were run in white 384 well polystyrene plates dotted with 0.8 μL compound/DMSO in the assay buffer (50 mM Tris, pH 7.5, 0.01% Tween-20, 5 mM mgCl2, 0.01% BSA, 5 mM DTT), containing 0.05 μM Biotin-labeled BAD peptide substrate (AnaSpec 62269), 1 mM ATP, and 2.5 pM (Pim-1, Invitrogen PV3503) or 1.25 pM (Pim-3, Millipore 14-738) enzyme for 1 h at 25° C. Reactions were stopped by addition of 10 μL STOP Buffer (150 mM Tris, pH=7.5, 150 mM NaCl, 75 mM EDTA, 0.01% Tween-20, 0.3% BSA,) supplemented with Phospho-Bad (Ser112) Antibody (Cell Signaling 9291) diluted 666-fold, and Streptavidin donor beads (PerkinElmer 6760002) along with Protein-A acceptor beads (PerkinElmer 6760137) at 15 μg/mL each. Supplementation of the STOP buffer with beads and stopping the reactions were done under reduced light. Prior to the stopping reactions STOP buffer with beads was preincubated for 1 h in the dark at room temperature. After stopping the reactions, plates were incubated for 1 h in the dark at room temperature before reading on a PHERAstar FS plate reader (BMG Labtech) under reduced light.

The next test deals with Pim-1 (Homo sapiens (Human), UniProt P11309). Put plainly: Pim-1 kinase assay (Pim enzyme assays, Example A). The settings on record: 1 mM ATP, BAD peptide substrate; read-out: PIM1 IC50. It is filed as biochemical. On the procedure: as §1
Another test concerns pBAD in KMS.12.BM cells. As to the kind of experiment: Pim pBAD signaling assay in KMS.12.BM cells (Example B). It is filed as cell-based. The settings on record: Homo sapiens, 2.5 h incubation, pBAD ELISA. On the procedure:
KG-1A cells are purchased from ATCC (Manassas, Va.) and KMS.12.BM cells are purchased from NIBIO, JCRB cell bank (Tokyo, Japan) and maintained in the culture mediums recommended, RPMI, 10% FBS and IMDM 20% FBS (Mediatech, Manassas, Va.) respectively. To measure the pBAD inhibitory activity of the compounds, both cell lines are plated with the culture medium (1×10^6/well/100 μL for KG1A and 4×10^5 cells/well/in 100 μL for KMS12BM) into 96-well V bottom polypropylene plates (Matrix, Thermo Fisher, USA) and incubated 30 min. at 37° C. to normalize cell signaling from handling. Test compounds are added at an appropriate concentration range and further incubated for 2.5 h for KMS.12.BM cells and 4 h for KG1-A cells. Plates are centrifuged at 2000 RPM for 10 min. and supernatants aspirated. 100 μL lysis buffer with protease inhibitors (Cell Signaling Technologies, Danver, Mass., Sigma, St Louis Mo., EMD, USA) is added to the pellets, mixed well and set on ice for 30 min. Lysates are frozen overnight at −80° C. To measure the pBAD activity, a Cell Signaling ELISA kit (Cell Signaling Path Scan phosphor pBAD ELISA) is utilized. 50 μL of the lysate is tested per the ELISA protocol and the data analysis is performed by software on a SpectrMax5 plate reader (Molecular Devices, Sunnyvale, Calif.). IC50 determination is performed by fitting the curve of percent inhibition versus the log of the inhibitor concentration using the GraphPad Prism 5.0 software.

A word on the IC50: it is the point on the concentration scale where inhibition reaches its midpoint.

Sequence of Pim-2 (Q9P1W9 whole entry): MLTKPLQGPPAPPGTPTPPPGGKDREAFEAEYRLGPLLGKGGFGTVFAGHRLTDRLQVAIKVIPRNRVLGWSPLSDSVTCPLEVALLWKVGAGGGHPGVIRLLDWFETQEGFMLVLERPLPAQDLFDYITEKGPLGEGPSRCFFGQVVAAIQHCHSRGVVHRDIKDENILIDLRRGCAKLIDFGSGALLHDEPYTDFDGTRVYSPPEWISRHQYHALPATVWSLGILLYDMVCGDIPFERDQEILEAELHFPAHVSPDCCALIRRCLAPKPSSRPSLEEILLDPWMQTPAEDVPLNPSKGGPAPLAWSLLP
Sequence of Pim-1 (P11309 whole entry): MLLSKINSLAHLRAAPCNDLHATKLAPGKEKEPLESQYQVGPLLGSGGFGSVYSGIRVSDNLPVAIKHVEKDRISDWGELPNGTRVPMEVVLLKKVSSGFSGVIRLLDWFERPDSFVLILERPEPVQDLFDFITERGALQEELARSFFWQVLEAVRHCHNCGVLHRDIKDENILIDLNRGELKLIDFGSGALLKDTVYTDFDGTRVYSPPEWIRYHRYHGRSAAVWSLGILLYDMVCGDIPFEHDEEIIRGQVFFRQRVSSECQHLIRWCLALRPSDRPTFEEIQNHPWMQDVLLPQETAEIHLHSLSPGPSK

Consider `COC1CCN(c2ccc3ccc(C(=O)Nc4cnccc4N4C[C@@H](N)[C@H](O)[C@@H](C)C4)nc3c2)CC1` [Example 24, N-{4-[(3R,4R,5S)-3-Amino-4-hydroxy-5-methylpiperidin-1-yl]pyridin-3-yl}-7-(4-methoxypiperidin-1-yl)quinoline-2-carboxamide], for which the half-maximal inhibitory concentration (IC50) was no more than 100 nM at Pim-2, no more than 10 nM on Pim-3, no more than 10 nM at Pim-1 and no more than 50 nM in the test on pBAD in KMS.12.BM cells.

Regarding `CCc1ccc2ccc(C(=O)Nc3cnccc3N3C[C@@H](N)[C@H](O)[C@@H](C)C3)nc2c1` [Example 9, N-{4-[(3R,4R,5S)-3-Amino-4-hydroxy-5-methylpiperidin-1-yl]pyridin-3-yl}-7-ethylquinoline-2-carboxamide], the concentration for half-maximal inhibition (IC50) at Pim-2 was 100 to 1000 nM; at Pim-3, no more than 10 nM; at Pim-1, no more than 10 nM; in the test with pBAD in KMS.12.BM cells, no more than 50 nM.

Regarding `N[C@@H]1CN(c2ccncc2NC(=O)c2ccc3ncc(N4CCC5(CCCO5)CC4)cc3n2)C[C@H](C2CC2)[C@H]1O` [Example 42, N-{4-[(3R,4R,5S)-3-Amino-5-cyclopropyl-4-hydroxypiperidin-1-yl]pyridin-3-yl}-7-(1-oxa-8-azaspiro[4.5]dec-8-yl)-1,5-naphthyridine-2-carboxamide], the IC50 on Pim-2 was 100 to 1000 nM; at Pim-3, no more than 10 nM; on Pim-1 it was no more than 10 nM; in the test with pBAD in KMS.12.BM cells it was 50 to 250 nM.

For `C[C@@H]1C[C@H](N)CN(c2ccncc2NC(=O)c2ccc3ccc(N4CCC(O)CC4)cc3n2)C1` [Example 50, N-(4-((3S,5R)-3-Amino-5-methylpiperidin-1-yl)pyridin-3-yl)-7-(4-hydroxypiperidin-1-yl)quinoline-2-carboxamide], the IC50 is no more than 100 nM at Pim-2, no more than 10 nM on Pim-3, no more than 10 nM at Pim-1 and no more than 50 nM with pBAD in KMS.12.BM cells.

With `C[C@H]1CN(c2ccncc2NC(=O)c2ccc3ccc(-c4ccc(N5CCOCC5)nc4)cc3n2)C[C@@H](N)[C@@H]1O` [Example 46, N-{4-[(3R,4R,5S)-3-Amino-4-hydroxy-5-methylpiperidin-1-yl]pyridin-3-yl}-7-(6-morpholin-4-ylpyridin-3-yl)quinoline-2-carboxamide], the IC50 on Pim-2 is no more than 100 nM; at Pim-3, no more than 10 nM; at Pim-1 it was no more than 10 nM; with pBAD in KMS.12.BM cells it was no more than 50 nM.

In the case of `N[C@@H]1CN(c2ccncc2NC(=O)c2ccc3ncc(-c4ccc(N5CCOCC5)nc4)cc3n2)C[C@H](C2CC2)[C@H]1O` [Example 37, N-{4-[(3R,4R,5S)-3-Amino-5-cyclopropyl-4-hydroxypiperidin-1-yl]pyridin-3-yl}-7-(6-morpholin-4-ylpyridin-3-yl)-1,5-naphthyridine-2-carboxamide], the concentration for half-maximal inhibition (IC50) at Pim-2 was no more than 100 nM; at Pim-3, no more than 10 nM; at Pim-1, no more than 10 nM; with pBAD in KMS.12.BM cells, no more than 50 nM.

As to `N#CC1CCN(c2cnc3ccc(C(=O)Nc4cnccc4N4C[C@@H](N)[C@H](O)[C@@H](C5CC5)C4)nc3c2)CC1` [Example 41, N-{4-[(3R,4R,5S)-3-Amino-5-cyclopropyl-4-hydroxypiperidin-1-yl]pyridin-3-yl}-7-(4-cyanopiperidin-1-yl)-1,5-naphthyridine-2-carboxamide], the IC50 lay in the range of 1000 to 10000 nM at Pim-2, 10 to 50 nM at Pim-3, 10 to 50 nM at Pim-1 and 50 to 250 nM in the test on pBAD in KMS.12.BM cells.

In the case of `C[C@@H]1C[C@H](N)CN(c2ccncc2NC(=O)c2ccc3ccc(N4CCC5(CCOCC5)CC4)cc3n2)C1` [Example 15, N-{4-[(3S,5R)-3-Amino-5-methylpiperidin-1-yl]pyridin-3-yl}-7-(3-oxa-9-azaspiro[5.5]undec-9-yl)quinoline-2-carboxamide], the concentration for half-maximal inhibition (IC50) is 100 to 1000 nM at Pim-2, no more than 10 nM at Pim-3, no more than 10 nM at Pim-1 and 50 to 250 nM in the test with pBAD in KMS.12.BM cells.

Regarding `C[C@H]1CN(c2ccncc2NC(=O)c2ccc3ccc(N4CCC(N5CCOCC5)CC4)cc3n2)C[C@@H](N)[C@@H]1O` [Example 26, N-{4-[(3R,4R,5S)-3-Amino-4-hydroxy-5-methylpiperidin-1-yl]pyridin-3-yl}-7-(4-morpholin-4-ylpiperidin-1-yl)quinoline-2-carboxamide], the IC50 on Pim-2 was no more than 100 nM; on Pim-3 it was no more than 10 nM; at Pim-1, no more than 10 nM; in the test with pBAD in KMS.12.BM cells it was 50 to 250 nM.

For `CC(C)c1cnc2ccc(C(=O)Nc3cnccc3N3C[C@H](C)C[C@H](N)C3)nc2c1` [Example 2, N-{4-[(3S,5R)-3-Amino-5-methylpiperidin-1-yl]pyridin-3-yl}-7-isopropyl-1,5-naphthyridine-2-carboxamide], the IC50 is no more than 100 nM at Pim-2, no more than 10 nM on Pim-3, no more than 10 nM at Pim-1 and no more than 50 nM with pBAD in KMS.12.BM cells.

As for `C[C@@H]1C[C@H](N)CN(c2ccncc2NC(=O)c2ccc3ccc(N4CCC(C#N)CC4)cc3n2)C1` [Example 17, N-{4-[(3S,5R)-3-Amino-5-methylpiperidin-1-yl]pyridin-3-yl}-7-(4-cyanopiperidin-1-yl)quinoline-2-carboxamide], the IC50 at Pim-2 is 100 to 1000 nM; at Pim-3, no more than 10 nM; at Pim-1, no more than 10 nM; in the test on pBAD in KMS.12.BM cells, 50 to 250 nM.

As to `CC(C)c1ccc2ccc(C(=O)Nc3cnccc3N3C[C@@H](N)[C@H](O)[C@@H](C)C3)nc2c1` [Example 10, N-{4-[(3R,4R,5S)-3-Amino-4-hydroxy-5-methylpiperidin-1-yl]pyridin-3-yl}-7-isopropylquinoline-2-carboxamide], the IC50 on Pim-2 is no more than 100 nM; on Pim-3, no more than 10 nM; on Pim-1, no more than 10 nM; in the test on pBAD in KMS.12.BM cells it was no more than 50 nM.

Turning to `C[C@H]1CN(c2ccncc2NC(=O)c2ccc3ccc(C4CCOCC4)cc3n2)C[C@@H](N)[C@@H]1O` [Example 11, N-{4-[(3R,4R,5S)-3-Amino-4-hydroxy-5-methylpiperidin-1-yl]pyridin-3-yl}-7-(tetrahydro-2H-pyran-4-yl)quinoline-2-carboxamide], the IC50 was 100 to 1000 nM at Pim-2, no more than 10 nM on Pim-3, no more than 10 nM at Pim-1 and 50 to 250 nM in the test with pBAD in KMS.12.BM cells.

`C[C@@H]1C[C@H](N)CN(c2ccncc2NC(=O)c2ccc3ncc(-c4c(F)cccc4F)cc3n2)C1` [Example 1, N-{4-[(3S,5R)-3-Amino-5-methylpiperidin-1-yl]pyridin-3-yl}-7-(2,6-difluorophenyl)-1,5-naphthyridine-2-carboxamide]: the half-maximal inhibitory concentration (IC50) is no more than 100 nM on Pim-2, no more than 10 nM at Pim-3, no more than 10 nM on Pim-1 and no more than 50 nM in the test on pBAD in KMS.12.BM cells.

As for `C[C@H]1CN(c2ccncc2NC(=O)c2ccc3ccc(-c4ccc(OC5CCOCC5)nc4)cc3n2)C[C@@H](N)[C@@H]1O` [Example 52, N-{4-[(3R,4R,5S)-3-Amino-4-hydroxy-5-methylpiperidin-1-yl]pyridin-3-yl}-7-[6-(tetrahydro-2H-pyran-4-yloxy)pyridin-3-yl]quinoline-2-carboxamide], the IC50 on Pim-2 is no more than 100 nM; at Pim-3 it was no more than 10 nM; on Pim-1, no more than 10 nM; in the test on pBAD in KMS.12.BM cells, 50 to 250 nM.
